The source of these data is PubChem BioAssay AID330 (DTP/NCI, 2004).

The test deals with P388 leukemia ip, CD2F1 mice, survival T/C. The experiment in a line: NCI In Vivo Anticancer Drug Screen. Data for tumor model P388 Leukemia (intraperitoneal) in CD2F1 (CDF1) mice. The note with it: endpoint: median survival time, higher = longer survival. Summed up:
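Mice carrying the transplanted tumor received test compound or vehicle. Survival was recorded in each group, and the value is the treated-group measurement divided by that of the vehicle-treated control group.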

Setting [1] is: dose: 60.0 mg/kg/injection, schedule: Q01DX005 (ip), vehicle: saline.
The mark [2] stands for this setting: dose: 120.0 mg/kg/injection, schedule: Q01DX005 (ip), vehicle: saline.
Where [3] appears, read: dose: 240.0 mg/kg/injection, schedule: Q01DX005 (ip), vehicle: saline.
[4] abbreviates: dose: 60.0 mg/kg/injection, schedule: Q01DX005 (ip), vehicle: saline with Tween-80.
[5] abbreviates: dose: 120.0 mg/kg/injection, schedule: Q01DX005 (ip), vehicle: saline with Tween-80.
[6] abbreviates: dose: 240.0 mg/kg/injection, schedule: Q01DX005 (ip), vehicle: saline with Tween-80.
[7] abbreviates: dose: 6.25 mg/kg/injection, schedule: Q01DX009 (ip), vehicle: saline with Tween-80.
Setting [8] is: dose: 12.5 mg/kg/injection, schedule: Q01DX009 (ip), vehicle: saline with Tween-80.
Where [9] appears, read: dose: 25.0 mg/kg/injection, schedule: Q01DX009 (ip), vehicle: saline with Tween-80.
[10] abbreviates: dose: 100.0 mg/kg/injection, schedule: Q01DX009 (ip), vehicle: saline with Tween-80.
[11] abbreviates: dose: 200.0 mg/kg/injection, schedule: Q01DX009 (ip), vehicle: saline with Tween-80.
[12] abbreviates: dose: 50.0 mg/kg/injection, schedule: Q01DX009 (ip), vehicle: saline.
The mark [13] stands for this setting: dose: 100.0 mg/kg/injection, schedule: Q01DX009 (ip), vehicle: saline.
Where [14] appears, read: dose: 50.0 mg/kg/injection, schedule: Q01DX009 (ip), vehicle: saline with Tween-80.
Setting [15] is: dose: 50.0 mg/kg/injection, schedule: Q01DX005 (ip), vehicle: saline with Tween-80.
[16] abbreviates: dose: 100.0 mg/kg/injection, schedule: Q01DX005 (ip), vehicle: saline with Tween-80.
Setting [17] is: dose: 200.0 mg/kg/injection, schedule: Q01DX005 (ip), vehicle: saline with Tween-80.

“And” between values parts separate entries of the source, which are not always exact repeats. Identical values can stand only once. Inconclusive results and toxic doses are left out. Square brackets hold non-standard residues; d marks the D form. Peptide text beside a SMILES is read from it. ξ: configuration not given here. ξI = CCC(C)C(N)C(=O)O

In the case of `CCC(C)C(N)C(=O)NCC(=O)O` (stereo not given) (H-[ξI]-Gly-OH), the T/C is 96 % of control under setting [1], 96 % of control under setting [2] and 96 % of control under setting [3].
Turning to `CCOc1c(N=Nc2ccccc2OC)c(C)nn1C(N)=S`, the T/C was 100 % of control (dose: 3.75 mg/kg/injection, schedule: Q01DX005 (ip), vehicle: Klucel + Tween-80); 94 % of control (dose: 7.5 mg/kg/injection, schedule: Q01DX005 (ip), vehicle: Klucel + Tween-80); 99 % of control and 105 % of control (dose: 15.0 mg/kg/injection, schedule: Q01DX005 (ip), vehicle: Klucel + Tween-80).
For the compound `Cc1ccc(S(=O)(=O)CC(=O)CC(=O)C(=O)Nc2ccc(C)cc2C)cc1`, the T/C was 108 % of control under setting [4], 106 % of control under setting [5] and 99 % of control under setting [6].
Take `CN(c1ccccc1)C1C2=C(OC(=O)C1(Cl)Cl)c1sc(-c3ccccc3)nc1CC2` (stereo not given): the T/C runs as follows: (dose: 12.5 mg/kg/injection, schedule: Q04DX002 (ip), vehicle: saline with Tween-80) 93 % of control; (dose: 25.0 mg/kg/injection, schedule: Q04DX002 (ip), vehicle: saline with Tween-80) 97 % of control; (dose: 50.0 mg/kg/injection, schedule: Q04DX002 (ip), vehicle: saline with Tween-80) 93 % of control; (dose: 200.0 mg/kg/injection, schedule: Q04DX002 (ip), vehicle: saline with Tween-80) 86 % of control.
For the compound `C[n+]1ccccc1-c1ccc[n+](CCC[n+]2cccc(-c3cccc[n+]3C)c2)c1`, the T/C runs as follows: (dose: 100.0 mg/kg/injection, schedule: Q04DX002 (ip), vehicle: saline) 105 % of control; (dose: 200.0 mg/kg/injection, schedule: Q04DX002 (ip), vehicle: saline) 102 % of control; (dose: 400.0 mg/kg/injection, schedule: Q04DX002 (ip), vehicle: saline) 108 % of control.
As for `CCC1=C(c2cccc(OC(C)=O)c2)C(C)c2ccc(OC(C)=O)cc21` (stereo not given), the T/C (dose: 60.0 mg/kg/injection, schedule: Q01DX005 (ip), vehicle: Klucel (hydroxypropylcellulose) (HPC)) was 96 % of control; the T/C (dose: 120.0 mg/kg/injection, schedule: Q01DX005 (ip), vehicle: Klucel (hydroxypropylcellulose) (HPC)) was 95 % of control; the T/C (dose: 240.0 mg/kg/injection, schedule: Q01DX005 (ip), vehicle: Klucel (hydroxypropylcellulose) (HPC)) is 95 % of control.
Regarding `Cc1c2oc3c(C)c(N)cc(C(=O)NC4C(=O)NC(C(C)C)C(=O)N5CCCC5C(=O)N(C)CC(=O)N(C)C(C(C)C)C(=O)OC4C)c3nc-2c(C(=O)NC2C(=O)NC(C(C)C)C(=O)N3CCCC3C(=O)N(C)CC(=O)N(C)C(C(C)C)C(=O)OC2C)c(N)c1=O` (stereo not given), the T/C by setting is: (dose: 0.01 mg/kg/injection, schedule: Q01DX009 (ip), vehicle: Klucel (hydroxypropylcellulose) (HPC)) 102 % of control; (dose: 0.02 mg/kg/injection, schedule: Q01DX009 (ip), vehicle: Klucel (hydroxypropylcellulose) (HPC)) 110 % of control; (dose: 0.04 mg/kg/injection, schedule: Q01DX009 (ip), vehicle: Klucel (hydroxypropylcellulose) (HPC)) 115 % of control; (dose: 0.08 mg/kg/injection, schedule: Q01DX009 (ip), vehicle: Klucel (hydroxypropylcellulose) (HPC)) 93 % of control; (dose: 0.3 mg/kg/injection, schedule: Q01DX009 (ip), vehicle: Klucel (hydroxypropylcellulose) (HPC)) 190 % of control.
Turning to `NC(=S)Oc1ccccc1`, the T/C under setting [7] was 103 % of control; the T/C under setting [8] was 100 % of control; the T/C under setting [9] was 106 % of control; the T/C under setting [10] is 93 % of control; the T/C under setting [11] is 93 % of control.
On to `OC1COC2C(O)COC12` (stereo not given), for which the T/C reads like this: under setting [12], 102 % of control; under setting [13], 90 % of control.
Consider `COC1/C=C\OC2(C)Oc3c(C)c(O)c4c(O)c(c5[nH]cnc5c4c3C2=O)NC(=O)/C(C)=C\C=C\C(C)C(O)C(C)C(O)C(C)C(OC(C)=O)C1C` (stereo not given), for which the T/C is 102 % of control (dose: 25.0 mg/kg/injection, schedule: Q01DX009 (ip), vehicle: Klucel (hydroxypropylcellulose) (HPC)); 102 % of control (dose: 50.0 mg/kg/injection, schedule: Q01DX009 (ip), vehicle: Klucel (hydroxypropylcellulose) (HPC)); 100 % of control (dose: 100.0 mg/kg/injection, schedule: Q01DX009 (ip), vehicle: Klucel (hydroxypropylcellulose) (HPC)); 108 % of control (dose: 200.0 mg/kg/injection, schedule: Q01DX009 (ip), vehicle: Klucel (hydroxypropylcellulose) (HPC)).
With `CC(C)[Si](C#CC[Si](C(C)C)(C(C)C)C(C)C)(C(C)C)C(C)C`, the T/C was 105 % of control under setting [4], 98 % of control under setting [5] and 100 % of control under setting [6].
Take `c1ccc(C2CN3CCSC3=N2)cc1` (stereo not given): the T/C by setting is: (dose: 3.13 mg/kg/injection, schedule: Q01DX009 (ip), vehicle: saline with Tween-80) 98 % of control; (dose: 3.75 mg/kg/injection, schedule: Q01DX005 (ip), vehicle: saline) 101 % of control; under setting [7], 100 % of control; (dose: 7.5 mg/kg/injection, schedule: Q01DX005 (ip), vehicle: saline) 100 % of control; under setting [8], 98 % of control; (dose: 15.0 mg/kg/injection, schedule: Q01DX005 (ip), vehicle: saline) 99 % of control. Moreover, under setting [9], the T/C was 103 % of control.
As to `CC(=O)Nc1ccc(/C=C/c2ccc(N=C=S)cc2S(=O)(=O)O)c(S(=O)(=O)O)c1`, the T/C under setting [14] was 110 % of control and the T/C under setting [10] was 110 % of control.
With `CCCCCN(CCCCC)CCCCCCCCN1CCCc2ccccc21`, the T/C reads like this: under setting [15], 106 % of control; under setting [16], 108 % of control; under setting [17], 117 % of control.
Turning to `CC(C)COP(=O)(OCC(C)C)OCC(C)C`, the T/C under setting [9] is 100 % of control; the T/C under setting [14] was 109 % of control; the T/C (dose: 50.0 mg/kg/injection, schedule: Q04DX003 (ip), vehicle: saline with Tween-80) is 100 % of control; the T/C (dose: 100.0 mg/kg/injection, schedule: Q04DX003 (ip), vehicle: saline with Tween-80) is 90 % of control; the T/C (dose: 200.0 mg/kg/injection, schedule: Q04DX003 (ip), vehicle: saline with Tween-80) was 95 % of control.
As for `O=S(=O)(Nc1ccc2ccc(NS(=O)(=O)N3CCCCC3)cc2c1)N1CCCCC1`, the T/C under setting [15] was 104 % of control, the T/C under setting [16] was 95 % of control and the T/C under setting [17] is 100 % of control.
Regarding `CC[As](CC)SC1OC(COC(C)=O)C(OC(C)=O)C(OC(C)=O)C1OC(C)=O` (stereo not given), the T/C is 116 % of control (dose: 50.0 mg/kg/injection, schedule: Q01DX009 (ip), vehicle: saline + alcohol); 108 % of control under setting [14]; 180 % of control (dose: 100.0 mg/kg/injection, schedule: Q01DX009 (ip), vehicle: saline + alcohol); 115 % of control under setting [10]; 181 % of control (dose: 200.0 mg/kg/injection, schedule: Q01DX009 (ip), vehicle: saline + alcohol); 96 % of control under setting [11]. The T/C (dose: 400.0 mg/kg/injection, schedule: Q01DX009 (ip), vehicle: saline with Tween-80) is 102 % of control.
Regarding `CCN(CCOC(=O)Nc1ccc(F)cc1)c1ccccc1`, the T/C reads like this: under setting [4], 111 % of control; under setting [5], 96 % of control; under setting [6], 94 % of control.
Regarding `CC(/C=C/c1ccccc1)=Nc1ccccc1`, the T/C was 109 % of control and 112 % of control under setting [14]; 114 % of control and 123 % of control under setting [10]; 123 % of control under setting [11].
As to `CCOC(=O)C(NC(C)=O)(C(=O)OCC)C1CCCC1=O` (stereo not given), the T/C is 94 % of control under setting [1], 96 % of control under setting [2] and 100 % of control under setting [3].
Consider `C1=C(/c2ccccc2)NCCN=C(c2ccccc2)CS/1`, for which the T/C is, setting by setting: under setting [15], 104 % of control; under setting [16], 101 % of control; under setting [17], 101 % of control.
Take `CCCCCSSSCCCCC`: the T/C is 101 % of control under setting [12]; 96 % of control under setting [13]; 104 % of control (dose: 200.0 mg/kg/injection, schedule: Q01DX009 (ip), vehicle: saline).
